Legend:
[1] = test system: rice (Oryza sativa); assay: Test B flooded paddy test, visual rating 0-100 (0 no effect, 100 complete control); settings: Flood, 250 g ai/ha, applied to paddy water, rated after 13 to 15 days
[2] = test system: ryegrass, Italian (Italian ryegrass, Lolium multiflorum); assay: Test A postemergence, visual injury rating 0-100; assay type: in vivo; settings: 0 to 100 scale
[3] = test system: ragweed (common ragweed, Ambrosia elatior); assay: Test A postemergence, visual injury rating 0-100; assay type: in vivo; settings: 0 to 100 scale
[4] = test system: kochia (Kochia scoparia); assay: Test A postemergence, visual injury rating 0-100; assay type: in vivo; settings: 0 to 100 scale
[5] = test system: wheat (Triticum aestivum); assay: Test A postemergence, visual injury rating 0-100; assay type: in vivo; settings: 0 to 100 scale
[6] = test system: galium (catchweed bedstraw, Galium aparine); assay: Test A postemergence, visual injury rating 0-100; assay type: in vivo; settings: 0 to 100 scale
[7] = test system: foxtail, giant (giant foxtail, Setaria faberii); assay: Test A postemergence, visual injury rating 0-100; assay type: in vivo; settings: 0 to 100 scale
[8] = test system: pigweed (Amaranthus retroflexus); assay: Test A postemergence, visual injury rating 0-100; assay type: in vivo; settings: 0 to 100 scale
[9] = test system: blackgrass (Alopecurus myosuroides); assay: Test A postemergence, visual injury rating 0-100; assay type: in vivo; settings: 0 to 100 scale
[10] = test system: barnyardgrass (Echinochloa crus-galli); assay: Test A postemergence, visual injury rating 0-100; assay type: in vivo; settings: 0 to 100 scale
[11] = test system: corn (Zea mays); assay: Test A postemergence, visual injury rating 0-100; assay type: in vivo; settings: 0 to 100 scale
[12] = test system: ryegrass, Italian (Italian ryegrass, Lolium multiflorum); assay: Test A preemergence, visual injury rating 0-100; assay type: in vivo
[13] = test system: ragweed (common ragweed, Ambrosia elatior); assay: Test A preemergence, visual injury rating 0-100; assay type: in vivo
[14] = test system: kochia (Kochia scoparia); assay: Test A preemergence, visual injury rating 0-100; assay type: in vivo
[15] = test system: foxtail, giant (giant foxtail, Setaria faberii); assay: Test A preemergence, visual injury rating 0-100; assay type: in vivo
[16] = test system: pigweed (Amaranthus retroflexus); assay: Test A preemergence, visual injury rating 0-100; assay type: in vivo
[17] = test system: barnyardgrass (Echinochloa crus-galli); assay: Test B flooded paddy test, visual rating 0-100; settings: Flood, 250 g ai/ha, applied to paddy water, rated after 13 to 15 days
[18] = test system: barnyardgrass (Echinochloa crus-galli); assay: Test A preemergence, visual injury rating 0-100 (0 no effect, 100 complete control); assay type: in vivo
[19] = test system: ducksalad (Heteranthera limosa); assay: Test B flooded paddy test, visual rating 0-100; settings: Flood, 250 g ai/ha, applied to paddy water, rated after 13 to 15 days

| Compound | Rice plant response rating (0 to 100 scale) [1] | Ryegrass, Italian plant response rating ([2]; 125 g ai/ha) | Ryegrass, Italian plant response rating ([2]; 500 g ai/ha) | Ragweed plant response rating ([3]; 125 g ai/ha) | Ragweed plant response rating ([3]; 500 g ai/ha) | Kochia plant response rating ([4]; 125 g ai/ha) | Kochia plant response rating ([4]; 500 g ai/ha) | Wheat plant response rating ([5]; 125 g ai/ha) | Wheat plant response rating ([5]; 500 g ai/ha) | Galium plant response rating ([6]; 125 g ai/ha) | Galium plant response rating ([6]; 500 g ai/ha) | Foxtail, Giant plant response rating ([7]; 125 g ai/ha) | Foxtail, Giant plant response rating ([7]; 500 g ai/ha) | Pigweed plant response rating ([8]; 125 g ai/ha) | Pigweed plant response rating ([8]; 500 g ai/ha) | Blackgrass plant response rating ([9]; 125 g ai/ha) | Blackgrass plant response rating ([9]; 500 g ai/ha) | Barnyardgrass plant response rating ([10]; 125 g ai/ha) | Barnyardgrass plant response rating ([10]; 500 g ai/ha) | Corn plant response rating ([11]; 125 g ai/ha) | further results |
| --- | --- | --- | --- | --- | --- | --- | --- | --- | --- | --- | --- | --- | --- | --- | --- | --- | --- | --- | --- | --- | --- |
| CC1=[N+]([O-])C(C(=O)Nc2cccc(F)c2F)C(c2cccc(C)c2)C1 (racemic) [Compound 15] | 15 | 30 | 50 | 0 | 50 | 0 | 30 | 40 | 50 | 0 | 30 | 80 | 90 | 0 | 40 | 0 | 30 | 90 | 90 | 60 | Corn plant response rating ([11]; 500 g ai/ha): 90; Ryegrass, Italian plant response rating (0 to 100 scale) ([12]; 125 g ai/ha): 0; Ryegrass, Italian plant response rating ([12]; 500 g ai/ha, 0 to 100 scale): 50; Ragweed plant response rating (0 to 100 scale) ([13]; 125 g ai/ha): 0; Ragweed plant response rating ([13]; 500 g ai/ha, 0 to 100 scale): 90; Kochia plant response rating (0 to 100 scale) ([14]; 125 g ai/ha): 0; Kochia plant response rating ([14]; 500 g ai/ha, 0 to 100 scale): 30; Foxtail, Giant plant response rating (0 to 100 scale) ([15]; 125 g ai/ha): 100; Foxtail, Giant plant response rating ([15]; 500 g ai/ha, 0 to 100 scale): 100; Pigweed plant response rating (0 to 100 scale) ([16]; 125 g ai/ha): 0; Pigweed plant response rating ([16]; 500 g ai/ha, 0 to 100 scale): 0; Barnyardgrass plant response rating (0 to 100 scale) [17]: 85; Barnyardgrass plant response rating (0 to 100 scale) ([18]; 125 g ai/ha): 100; Barnyardgrass plant response rating ([18]; 500 g ai/ha, 0 to 100 scale): 100; Ducksalad plant response rating (0 to 100 scale) [19]: 95 |
| CC1=[N+]([O-])C(C(=O)Nc2cccc(F)c2F)C(c2cccc(C(F)(F)F)c2C)C1 (racemic) [Compound 106] | 0 | 70 | 70 | 30 | 70 | 0 | 30 | 40 | 70 | 40 | 70 | 80 | 90 | 0 | 20 | 80 | 70 | 70 | 90 | 60 | Corn plant response rating ([11]; 500 g ai/ha): 90; Ryegrass, Italian plant response rating (0 to 100 scale) ([12]; 500 g ai/ha): 90; Ragweed plant response rating (0 to 100 scale) ([13]; 125 g ai/ha): 0; Ragweed plant response rating (0 to 100 scale) ([13]; 500 g ai/ha): 40; Kochia plant response rating (0 to 100 scale) ([14]; 125 g ai/ha): 0; Kochia plant response rating (0 to 100 scale) ([14]; 500 g ai/ha): 70; Foxtail, Giant plant response rating (0 to 100 scale) ([15]; 125 g ai/ha): 90; Foxtail, Giant plant response rating (0 to 100 scale) ([15]; 500 g ai/ha): 100; Pigweed plant response rating (0 to 100 scale) ([16]; 125 g ai/ha): 0; Pigweed plant response rating (0 to 100 scale) ([16]; 500 g ai/ha): 60; Barnyardgrass plant response rating (0 to 100 scale) [17]: 60; Barnyardgrass plant response rating (0 to 100 scale) ([18]; 125 g ai/ha): 90; Barnyardgrass plant response rating (0 to 100 scale) ([18]; 500 g ai/ha): 90; Ducksalad plant response rating (0 to 100 scale) [19]: 70 |
| CC1=[N+]([O-])C(C(=O)Nc2cccc(F)c2F)C(c2cc(C(F)(F)F)ccc2C)C1 (centres unmarked) [Compound 98] | 0 | 40 | 70 | 30 | 30 | 0 | 0 | 60 | 70 | 0 | 40 | 80 | 90 | 0 | 30 | 70 | 70 | 70 | 90 | 60 | Corn plant response rating ([11]; 500 g ai/ha): 80; Ryegrass, Italian plant response rating (0 to 100 scale) ([12]; 125 g ai/ha): 90; Ryegrass, Italian plant response rating (0 to 100 scale) ([12]; 500 g ai/ha): 100; Ragweed plant response rating (0 to 100 scale) ([13]; 125 g ai/ha): 20; Ragweed plant response rating (0 to 100 scale) ([13]; 500 g ai/ha): 80; Kochia plant response rating (0 to 100 scale) ([14]; 125 g ai/ha): 10; Kochia plant response rating (0 to 100 scale) ([14]; 500 g ai/ha): 80; Foxtail, Giant plant response rating (0 to 100 scale) ([15]; 125 g ai/ha): 90; Foxtail, Giant plant response rating (0 to 100 scale) ([15]; 500 g ai/ha): 100; Pigweed plant response rating (0 to 100 scale) ([16]; 125 g ai/ha): 0; Pigweed plant response rating (0 to 100 scale) ([16]; 500 g ai/ha): 70; Barnyardgrass plant response rating (0 to 100 scale) [17]: 55; Barnyardgrass plant response rating (0 to 100 scale) ([18]; 125 g ai/ha): 90; Barnyardgrass plant response rating (0 to 100 scale) ([18]; 500 g ai/ha): 90; Ducksalad plant response rating (0 to 100 scale) [19]: 100 |
| CC1=[N+]([O-])C(C(=O)Nc2cccc(F)c2F)C(c2ccc(Cl)c(C(F)(F)F)c2)C1 (racemic) [Compound 104] | 0 | 20 | 70 | 20 | 70 | 50 | 70 | 10 | 50 | 30 | 70 | 20 | 80 | 30 | 70 | 70 | 70 | 60 | 80 | 70 | Corn plant response rating ([11]; 500 g ai/ha): 60; Ryegrass, Italian plant response rating (0 to 100 scale) ([12]; 500 g ai/ha): 90; Ragweed plant response rating (0 to 100 scale) ([13]; 125 g ai/ha): 20; Ragweed plant response rating (0 to 100 scale) ([13]; 500 g ai/ha): 60; Kochia plant response rating (0 to 100 scale) ([14]; 125 g ai/ha): 30; Kochia plant response rating (0 to 100 scale) ([14]; 500 g ai/ha): 70; Foxtail, Giant plant response rating (0 to 100 scale) ([15]; 125 g ai/ha): 90; Foxtail, Giant plant response rating (0 to 100 scale) ([15]; 500 g ai/ha): 90; Pigweed plant response rating (0 to 100 scale) ([16]; 125 g ai/ha): 10; Pigweed plant response rating (0 to 100 scale) ([16]; 500 g ai/ha): 80; Barnyardgrass plant response rating (0 to 100 scale) [17]: 40; Barnyardgrass plant response rating (0 to 100 scale) ([18]; 125 g ai/ha): 80; Barnyardgrass plant response rating (0 to 100 scale) ([18]; 500 g ai/ha): 90; Ducksalad plant response rating (0 to 100 scale) [19]: 40 |
| CC1=[N+]([O-])C(C(=O)Nc2cccc(F)c2F)C(c2ccc(C(F)(F)F)c(Br)c2)C1 (racemic) [Compound 73] | 0 | 0 | 60 | 0 | 20 | 10 | 20 | 0 | 60 | 10 | 50 | 40 | 70 | 30 | 70 | 40 | 80 | 30 | 70 | 50 | Corn plant response rating ([11]; 500 g ai/ha): 70; Ryegrass, Italian plant response rating (0 to 100 scale) ([12]; 125 g ai/ha): 50; Ryegrass, Italian plant response rating (0 to 100 scale) ([12]; 500 g ai/ha): 90; Ragweed plant response rating (0 to 100 scale) ([13]; 125 g ai/ha): 50; Ragweed plant response rating (0 to 100 scale) ([13]; 500 g ai/ha): 80; Kochia plant response rating (0 to 100 scale) ([14]; 125 g ai/ha): 20; Kochia plant response rating (0 to 100 scale) ([14]; 500 g ai/ha): 60; Foxtail, Giant plant response rating (0 to 100 scale) ([15]; 125 g ai/ha): 80; Foxtail, Giant plant response rating (0 to 100 scale) ([15]; 500 g ai/ha): 90; Pigweed plant response rating (0 to 100 scale) ([16]; 125 g ai/ha): 40; Pigweed plant response rating (0 to 100 scale) ([16]; 500 g ai/ha): 70; Barnyardgrass plant response rating (0 to 100 scale) [17]: 0; Barnyardgrass plant response rating (0 to 100 scale) ([18]; 125 g ai/ha): 90; Barnyardgrass plant response rating (0 to 100 scale) ([18]; 500 g ai/ha): 90; Ducksalad plant response rating (0 to 100 scale) [19]: 0 |

Source: patent US11498899B2, “Nitrone herbicides” (FMC Corporation, priority 2016, dated 2022)
